In ChEMBL document CHEMBL4765344, “Expanding the anticancer potential of 1,2,3-triazoles via simultaneously targeting Cyclooxygenase-2, 15-lipoxygenase and tumor-associated carbonic anhydrases” (Eur J Med Chem, 2020):

How the values were obtained:
[1] = test system: WI-38; assay: Cytotoxicity against human WI-38 cells assessed as reduction in cell viability after 72 hrs by SRB assay; type: cell-based; conditions: WI-38, 72 h
[2] = Inhibition of soya bean 15-LOX; design: species or system Glycine max
[3] = test system: HepG2; assay: Antiproliferative activity against human HepG2 cells assessed as cell growth inhibition measured after 72 hrs by SRB assay; type: functional, cell-based; conditions: HepG2, 72 h
[4] = test system: MCF7; assay: Antiproliferative activity against human MCF-7 cells assessed as cell growth inhibition measured after 72 hrs by SRB assay; type: functional, cell-based; conditions: MCF7, 72 h
[5] = test system: A549; assay: Antiproliferative activity against human A549 cells assessed as inhibition of cell growth at 100 microM measured after 72 hrs by SRB assay; type: functional
[6] = target: Carbonic anhydrase 12 (Homo sapiens, UniProt O43570); assay: Inhibition of human CA12 by stopped-flow carbon dioxide hydration assay
[7] = test system: HepG2; assay: Antiproliferative activity against human HepG2 cells assessed as inhibition of cell growth at 100 microM measured after 72 hrs by SRB assay; type: functional
[8] = test system: MCF7; assay: Antiproliferative activity against human MCF-7 cells assessed as inhibition of cell growth at 100 microM measured after 72 hrs by SRB assay; type: functional
[9] = target: Carbonic anhydrase 2 (Homo sapiens, UniProt P00918); assay: Inhibition of human CA2 by stopped-flow carbon dioxide hydration assay
[10] = test system: A549; assay: Antiproliferative activity against human A549 cells assessed as cell growth inhibition measured after 72 hrs by SRB assay; type: functional, cell-based; conditions: A549, 72 h
[11] = target: Carbonic anhydrase 9 (Homo sapiens, UniProt Q16790); assay: Inhibition of human CA9 by stopped-flow carbon dioxide hydration assay
[12] = target: Carbonic anhydrase 1 (Homo sapiens, UniProt P00915); assay: Inhibition of human CA1 by stopped-flow carbon dioxide hydration assay
[13] = target: T1, Prostaglandin G/H synthase 1 (Ovis aries, UniProt P05979); assay: Inhibition of ovine COX1 by colorimetric analysis
T1 sequence (P05979 whole entry): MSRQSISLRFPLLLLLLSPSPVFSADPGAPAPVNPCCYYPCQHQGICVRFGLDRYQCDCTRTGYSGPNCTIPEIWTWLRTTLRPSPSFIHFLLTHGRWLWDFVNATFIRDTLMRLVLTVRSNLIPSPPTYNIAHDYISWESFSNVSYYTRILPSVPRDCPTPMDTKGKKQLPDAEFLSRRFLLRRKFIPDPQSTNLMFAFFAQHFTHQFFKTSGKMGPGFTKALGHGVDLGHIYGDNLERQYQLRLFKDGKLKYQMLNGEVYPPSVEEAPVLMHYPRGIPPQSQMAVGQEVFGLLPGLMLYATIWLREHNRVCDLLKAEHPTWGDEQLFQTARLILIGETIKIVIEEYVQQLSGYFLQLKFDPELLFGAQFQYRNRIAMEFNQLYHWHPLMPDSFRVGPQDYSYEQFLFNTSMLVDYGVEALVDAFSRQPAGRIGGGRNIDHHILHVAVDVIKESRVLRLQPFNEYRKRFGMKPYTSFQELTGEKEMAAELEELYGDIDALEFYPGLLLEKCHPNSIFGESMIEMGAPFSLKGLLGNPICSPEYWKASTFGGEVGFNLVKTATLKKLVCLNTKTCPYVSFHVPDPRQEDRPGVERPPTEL

[14] = Toxicity in BALB/c mouse xenografted with human MCF7 cells assessed as body weight at 23 mg/kg, ip administered thrice a week for 28 days measured on day 28 (reference value: 29.8 gms); type: organism-based; conditions: in vivo, 672 h, time 28 day
[15] = test system: MCF7; assay: Antitumor activity against human MCF7 cells xenografted in BALB/c mouse assessed as reduction in tumor volume at 23 mg/kg, ip administered thrice a week for 28 days by vernier caliper analysis; type: functional; conditions: time 28 day
[16] = Toxicity in ip dosed BALB/c mouse measured for 3 days; type: organism-based; conditions: in vivo, time 3 day
[17] = test system: MCF7; assay: Antiproliferative activity against human MCF-7 cells assessed as inhibition of cell growth at 100 microM measured after 72 hrs by SRB assay relative to celecoxib; type: functional; design: scale not given: the % may be the effect or the level left
[18] = test system: HT-29; assay: Cytotoxicity against human HT-29 cells assessed as reduction in cell viability incubated for 24 hrs by MTS assay; type: functional, cell-based; conditions: HT-29, 24 h
[19] = test system: A549; assay: Induction of apoptosis in human A549 cells assessed as Bcl2 expression at IC50 by ELISA (reference value: 9.04 +/-0.1 ng/ml); type: functional
[20] = test system: A549; assay: Induction of cell cycle arrest in human A549 cells assessed as accumulation at pre-G1 phase at IC50 measured after 24 hrs by propidium iodide/RNase staining based flow cytometry (reference value: 1.93%); type: functional
[21] = test system: A549; assay: Induction of cell cycle arrest in human A549 cells assessed as accumulation at G0/G1 phase at IC50 measured after 24 hrs by propidium iodide/RNase staining based flow cytometry (reference value: 58.26%); type: functional
[22] = test system: A549; assay: Induction of apoptosis in human A549 cells assessed as Bax expression at IC50 by ELISA (reference value: 42.16 +/-6.2 pg/ml); type: functional
[23] = test system: A549; assay: Induction of apoptosis in human A549 cells assessed as fold change in Bax expression at IC50 by ELISA relative to control; type: functional
[24] = test system: A549; assay: Induction of apoptosis in human A549 cells assessed as fold change in caspase-9 expression at IC50 by ELISA relative to control; type: functional
[25] = test system: A549; assay: Induction of cell cycle arrest in human A549 cells assessed as accumulation at G2/M phase at IC50 measured after 24 hrs by propidium iodide/RNase staining based flow cytometry (reference value: 9.86%); type: functional
[26] = test system: A549; assay: Induction of apoptosis in human A549 cells assessed as fold change in Bcl2 expression at IC50 by ELISA relative to control; type: functional
[27] = test system: A549; assay: Induction of cell cycle arrest in human A549 cells assessed as accumulation at S phase at IC50 measured after 24 hrs by propidium iodide/RNase staining based flow cytometry (reference value: 31.88%); type: functional
[28] = test system: A549; assay: Induction of apoptosis in human A549 cells assessed as caspase-9 expression at IC50 by ELISA (reference value: […] +/- […] ng/ml); type: functional
[29] = test system: A549; assay: Induction of apoptosis in human A549 cells assessed as total apoptotic cells at IC50 measured after 24 hrs by Annexin V-FITC/propidium iodide staining based flow cytometry (reference value: 0.92%); type: functional
[30] = test system: A549; assay: Induction of apoptosis in human A549 cells assessed as early apoptotic cells at IC50 measured after 24 hrs by annexin V-FITC staining based flow cytometry (reference value: 0.63%); type: functional
[31] = test system: A549; assay: Induction of apoptosis in human A549 cells assessed as late apoptotic cells at IC50 measured after 24 hrs by annexin V-FITC staining based flow cytometry (reference value: […]); type: functional
[32] = test system: A549; assay: Induction of apoptosis in human A549 cells assessed as necrotic cells at IC50 measured after 24 hrs by annexin V-FITC staining based flow cytometry (reference value: 1.01%); type: functional
[33] = test system: THP-1; assay: Cytotoxicity against PMA/LPS-challenged human THP1 cells assessed as reduction in cell viability incubated for 24 hrs by MTS assay; type: functional, cell-based; conditions: THP-1, 24 h

Carbonic anhydrase 1, sequence (P00915 whole entry): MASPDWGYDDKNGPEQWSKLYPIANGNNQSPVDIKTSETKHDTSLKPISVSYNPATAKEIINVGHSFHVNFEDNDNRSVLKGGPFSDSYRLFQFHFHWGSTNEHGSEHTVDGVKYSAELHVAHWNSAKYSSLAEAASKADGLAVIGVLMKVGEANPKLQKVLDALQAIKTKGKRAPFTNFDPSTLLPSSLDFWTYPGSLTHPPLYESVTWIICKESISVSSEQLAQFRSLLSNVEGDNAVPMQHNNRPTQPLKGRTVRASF
Carbonic anhydrase 12, sequence (O43570 whole entry): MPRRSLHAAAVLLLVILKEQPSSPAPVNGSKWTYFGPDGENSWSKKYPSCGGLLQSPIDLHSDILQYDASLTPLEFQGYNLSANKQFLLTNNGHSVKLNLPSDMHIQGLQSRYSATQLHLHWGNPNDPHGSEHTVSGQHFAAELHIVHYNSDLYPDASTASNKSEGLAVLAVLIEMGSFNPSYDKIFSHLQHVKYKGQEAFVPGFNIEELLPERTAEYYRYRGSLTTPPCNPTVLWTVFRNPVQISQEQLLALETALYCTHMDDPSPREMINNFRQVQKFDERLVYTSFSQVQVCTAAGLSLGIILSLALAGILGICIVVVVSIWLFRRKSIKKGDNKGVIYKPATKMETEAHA

Compound | IC50 [1] [µM] | IC50 [2] [µM] | IC50 [3] [µM] | IC50 [4] [µM] | inhibition at 100 µM [5] [%] | Ki [6] [µM] | inhibition at 100 µM [7] [%] | inhibition at 100 µM [8] [%] | Ki [9] [µM] | IC50 [10] [µM] | Ki [11] [µM] | Ki [12] [µM] | IC50 [13] [µM] | other results
Cc1c(-c2nn(-c3ccccc3)cc2/C=N/O)nnn1-c1ccc(Cl)cc1 | 402 | 1.47 | 26.5 | 22 | 69.7 | > 100 | 79 | 97.8 | > 100 | 55.7 | > 100 | > 100 | 12.9 | 
Cc1c(-c2nn(-c3ccccc3)cc2/C=N/O)nnn1-c1ccc(F)cc1 | 393 | 1.98 | 31.1 | 5.32 | 92.4 | > 100 | 89 | 98.2 | > 100 | 27 | > 100 | > 100 | 10.9 | 
Cc1c(-c2nn(-c3ccccc3)cc2/C=N/O)nnn1-c1ccc(C(=O)O)cc1 | 379 | 1.29 |  | 3.2 | 12.3 | 0.154 | 7.68 | 83.4 | 0.239 |  | 2.25 | 4.63 | 12.4 | Activity [14]: 27.3 g; Activity [15]: 0.45 cm3; LD50 at 72 h [16]: 61.7 mg/kg; Activity [17]: 80%
C/C(=N\Nc1nc(-c2ccc(Cl)cc2)cs1)c1nnn(-c2ccc(S(=O)(=O)Nc3nccs3)cc2)c1C | 468 | 1.19 | 89.5 |  | 51.1 | > 100 | 56 | 39.9 | > 100 | 99.3 | > 100 | > 100 | 14.2 | 
C/C(=N\Nc1nc(-c2ccc(Cl)cc2)cs1)c1nnn(-c2ccc(C(=O)O)cc2)c1C | 461 | 1.76 |  |  | 67 | > 100 | 1.41 | 40.4 |  | 73.1 | > 100 | 0.551 | 10.9 | 
C/C(=N\Nc1nc(-c2ccc(Cl)cc2)cs1)c1nnn(-c2ccc(S(N)(=O)=O)cc2)c1C | 388 | 1.34 | 72.4 |  | 68.1 | 0.0134 | 59 | 37.2 | 0.0141 | 28.5 | 7.89 | 0.252 | 12.4 | IC50 [18]: 87.4 µM; Activity [19]: 4.95 ng/mL; Activity [20]: 31.22%; Activity [21]: 31.61%; Activity [22]: 329.7 pg/mL; fold change (FC) [23]: 7.82; fold change (FC) [24]: 10.56; Activity [25]: 44.85%; fold change (FC) [26]: 0.51; Activity [27]: 23.54%; Activity [28]: 12.69 ng/mL; Activity [29]: 28.74%; Activity [30]: 9.15%; Activity [31]: 19.59%; Activity [32]: 2.48%
Cc1ccc(-c2cc(C(F)(F)F)nn2-c2ccc(S(N)(=O)=O)cc2)cc1 [CELECOXIB] | 433 |  | 0.36 | 2.56 | 86.2 |  | 77.9 | 89.9 |  | 17.5 |  |  |  | 
O=C(O)Cc1ccccc1Nc1c(Cl)cccc1Cl [DICLOFENAC SODIUM] |  |  |  |  |  |  |  |  |  |  |  |  |  | IC50 [18]: 137 µM; IC50 [33]: 201 µM
